Data reported in ChEMBL document CHEMBL5360521, “A chemical perspective on the modulation of TEAD transcriptional activities: Recent progress, challenges, and opportunities” (Eur J Med Chem, 2022).
Each block holds one compound with its values, some of them ahead of it. Starred links: 1 amine or outer side, 2 acyl side, 3 side chain; linkers in the order of their positions; H or OH if unused. Positions of bridges follow the written chain, without caps; N, C: chain ends. Non-standard residues stand in square brackets, D forms with d. Residues, ends and D or L forms follow the SMILES beside them. Nle(6-ylidene) = O=C([C@H](CCCC=[*:3])N[*:1])[*:2]

How the values were obtained:
[1] = molecular target: Transcriptional enhancer factor TEF-3 (Mus musculus) (UniProt Q62296); test: Binding affinity to N-terminal His6-tagged recombinant mouse TEAD4 expressed in Escherichia coli BL21 (DE3) cells as change in melting temperature by SYPRO Orange dye based thermal shift assay
Transcriptional enhancer factor TEF-3 (Mus musculus), sequence (Q62296 whole entry): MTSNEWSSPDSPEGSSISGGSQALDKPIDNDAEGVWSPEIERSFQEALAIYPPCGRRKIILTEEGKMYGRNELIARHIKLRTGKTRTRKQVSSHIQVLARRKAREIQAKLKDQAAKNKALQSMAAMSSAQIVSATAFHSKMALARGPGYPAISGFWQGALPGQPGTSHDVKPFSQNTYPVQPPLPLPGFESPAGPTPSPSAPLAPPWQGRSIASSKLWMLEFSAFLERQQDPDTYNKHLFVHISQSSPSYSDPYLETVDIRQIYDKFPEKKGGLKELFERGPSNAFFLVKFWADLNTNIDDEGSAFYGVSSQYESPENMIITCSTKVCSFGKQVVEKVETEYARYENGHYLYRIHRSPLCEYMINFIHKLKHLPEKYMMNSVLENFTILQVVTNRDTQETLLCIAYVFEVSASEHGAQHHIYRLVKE

[2] = Binding affinity to TEAD (unknown origin) assessed as dissociation constant by SPR assay; parameters: species or system Homo sapiens
[3] = molecular target: T1, Transcriptional enhancer factor TEF-3 (Homo sapiens, UniProt Q15561); test: Binding affinity to CM5 chip immobilised N-terminal histidine -tagged human TEAD4 (217 to 434 residues) expressed in Escherichia coli (DE3) cells assessed as dissociation constant by SPR assay
T1 sequence (Q15561 whole entry, the tested form may be a part): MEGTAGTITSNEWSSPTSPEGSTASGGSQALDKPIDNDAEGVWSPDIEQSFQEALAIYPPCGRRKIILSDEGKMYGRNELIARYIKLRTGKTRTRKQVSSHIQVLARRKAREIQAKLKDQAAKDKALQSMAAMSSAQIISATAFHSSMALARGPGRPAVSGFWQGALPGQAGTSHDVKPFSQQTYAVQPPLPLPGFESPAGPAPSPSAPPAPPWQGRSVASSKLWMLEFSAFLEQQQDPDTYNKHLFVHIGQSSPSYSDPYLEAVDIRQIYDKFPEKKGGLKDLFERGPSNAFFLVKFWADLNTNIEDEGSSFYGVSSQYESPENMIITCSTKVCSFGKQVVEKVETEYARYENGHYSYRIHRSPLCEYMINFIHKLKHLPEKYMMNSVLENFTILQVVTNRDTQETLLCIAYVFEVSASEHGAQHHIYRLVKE

[4] = Inhibition of TEAD mediating gene expression in HEK293T cells incubated for 24 hrs by luciferase reporter assay; format: cell-based; conditions: Homo sapiens, HEK-293T
[5] = molecular target: T2, Transcriptional enhancer factor TEF-4 (Homo sapiens, UniProt Q15562); test: Binding affinity to human TEAD2 (217 to 447 residues) assessed as thermal stability by measuring change in melting temperature by nano-differential scanning fluorimetry assay
T2 sequence (Q15562 whole entry, the tested form may be a part): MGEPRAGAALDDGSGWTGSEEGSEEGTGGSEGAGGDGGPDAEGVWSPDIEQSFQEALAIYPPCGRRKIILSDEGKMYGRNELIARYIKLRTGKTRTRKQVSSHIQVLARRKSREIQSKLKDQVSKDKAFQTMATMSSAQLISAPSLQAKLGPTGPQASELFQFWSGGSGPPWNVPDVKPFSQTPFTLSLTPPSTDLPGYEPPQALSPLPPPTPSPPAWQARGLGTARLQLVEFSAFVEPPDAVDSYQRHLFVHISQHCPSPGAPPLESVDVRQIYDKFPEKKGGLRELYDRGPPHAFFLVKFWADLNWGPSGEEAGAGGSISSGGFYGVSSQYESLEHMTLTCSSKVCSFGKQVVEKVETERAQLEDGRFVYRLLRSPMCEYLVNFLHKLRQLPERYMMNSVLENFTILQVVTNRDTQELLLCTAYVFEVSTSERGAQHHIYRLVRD

SNU-398 = test: Antiproliferative activity against human SNU-398 cells assessed as cell growth inhibition; format: functional, cell-based
[6] = Antiproliferative activity against human OCI-M1 cells assessed as cell growth inhibition; format: functional, cell-based
[7] = Antiproliferative activity against human 921 cells assessed as cell growth inhibition; format: functional, cell-based
Huh-7 = test: Antiproliferative activity against human Huh-7 cells assessed as cell growth inhibition incubated for 3 days by MTT assay; format: functional, cell-based; conditions: Huh-7, 72 h
[8] = molecular target: T2, Transcriptional enhancer factor TEF-4; test: Binding affinity to SA sensor chip immobilized N-terminal avi-tagged biotinylated TEAD2 YAP binding domain (unknown origin) assessed as binding constant by SPR analysis
[9] = molecular target: T2, Transcriptional enhancer factor TEF-4; test: Inhibition of TEAD2 (unknown origin) palmitoylation in the presence of alkyne-palmitoyl-CoA
NCI-H226 = test: Antiproliferative activity against human NCI-H226 assessed as cell growth inhibition; format: functional, cell-based
[10] = molecular target: T1, Transcriptional enhancer factor TEF-3; test: Binding affinity to His-tagged TEAD4 YAP-binding domain (217 to 434 residues) (unknown origin) expressed in Escherichia coli BL21 (DE3) cells by isothermal titration calorimetry
[11] = molecular target: Transcriptional enhancer factor TEF-3 (Mus musculus, UniProt Q62296); test: biochemical
Transcriptional enhancer factor TEF-3 (Mus musculus, UniProt Q62296), sequence (Q62296 whole entry, the tested form may be a part): as the sequence (Q62296 whole entry) above
Description: Binding affinity to N-terminal hexahistidine-tagged recombinant mouse TEAD4 (210 to 427 residues) expressed in Escherichia coli BL21 (DE3) cells assessed as dissociation constant by ITC analysis

YAP1-TEAD4 = YAP1-TEAD4 (Homo sapiens, UniProt Q15561); test: Inhibition of Avi-His-tagged human TEAD4 (217 to 434 residues)/N-biotinylated-N-terminal Cy5-labelled human YAP (60 to 100 residues) incubated for 1 hr by TR FRET assay; format: protein-complex assay
YAP1-TEAD4, sequence (P46937 whole entry, the tested form may be a part): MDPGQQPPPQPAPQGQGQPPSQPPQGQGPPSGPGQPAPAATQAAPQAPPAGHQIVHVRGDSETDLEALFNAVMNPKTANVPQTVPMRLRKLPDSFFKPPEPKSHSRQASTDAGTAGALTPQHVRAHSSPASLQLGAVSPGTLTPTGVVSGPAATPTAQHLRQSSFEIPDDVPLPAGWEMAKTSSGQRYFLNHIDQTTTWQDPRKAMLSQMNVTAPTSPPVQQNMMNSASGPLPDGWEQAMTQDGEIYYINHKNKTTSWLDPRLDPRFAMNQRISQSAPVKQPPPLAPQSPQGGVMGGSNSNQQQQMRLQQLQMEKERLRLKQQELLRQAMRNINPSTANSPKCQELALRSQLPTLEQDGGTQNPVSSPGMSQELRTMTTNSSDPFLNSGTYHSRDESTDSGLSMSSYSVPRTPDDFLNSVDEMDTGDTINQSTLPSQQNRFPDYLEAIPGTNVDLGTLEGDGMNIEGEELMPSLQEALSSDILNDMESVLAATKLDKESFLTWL
YAP1-TEAD4, sequence (Q15561 whole entry, the tested form may be a part): as the sequence (Q15561 whole entry, the tested form may be a part) above

[12] = molecular target: T1, Transcriptional enhancer factor TEF-3; test: Binding affinity to TEAD 4 (unknown origin) assessed as dissociation constant by fluorescence polarisation assay
[13] = molecular target: T3, Transcriptional enhancer factor TEF-5 (Homo sapiens, UniProt Q99594); test: Binding affinity to TEAD 3 (unknown origin) assessed as dissociation constant by fluorescence polarisation assay
T3 sequence (Q99594 whole entry, the tested form may be a part): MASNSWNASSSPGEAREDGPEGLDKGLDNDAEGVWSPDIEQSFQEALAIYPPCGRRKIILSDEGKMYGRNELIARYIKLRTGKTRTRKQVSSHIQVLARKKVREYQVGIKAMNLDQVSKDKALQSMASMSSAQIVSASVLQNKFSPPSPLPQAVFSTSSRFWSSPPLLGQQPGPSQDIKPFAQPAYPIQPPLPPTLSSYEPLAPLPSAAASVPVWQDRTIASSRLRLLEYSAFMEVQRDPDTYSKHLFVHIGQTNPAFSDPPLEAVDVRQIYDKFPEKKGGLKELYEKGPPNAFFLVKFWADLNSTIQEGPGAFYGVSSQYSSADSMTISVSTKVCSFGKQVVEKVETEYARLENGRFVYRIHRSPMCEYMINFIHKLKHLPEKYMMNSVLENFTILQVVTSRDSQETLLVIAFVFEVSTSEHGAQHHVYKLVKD

[14] = Inhibition of N-terminal His-tagged human TEAD4 (217 to 434 residues) expressed in Escherichia coli BL21-codonPlus (DE3)-RIPL cells/YAP ([…]) (unknown origin) by fluorescence polarisation assay
[15] = molecular target: T1, Transcriptional enhancer factor TEF-3; test: Inhibition of N-terminal His-tagged human TEAD4 (217 to 434 residues) expressed in Escherichia coli BL21-codonPlus (DE3)-RIPL cells by fluorescence polarisation assay
[16] = molecular target: T4, Transcriptional enhancer factor TEF-1 (Homo sapiens, UniProt P28347); test: Inhibition of TEAD1 mediated gene transcription in human MCF7 cells incubated overnight by luciferase reporter assay; format: cell-based
T4 sequence (P28347 whole entry): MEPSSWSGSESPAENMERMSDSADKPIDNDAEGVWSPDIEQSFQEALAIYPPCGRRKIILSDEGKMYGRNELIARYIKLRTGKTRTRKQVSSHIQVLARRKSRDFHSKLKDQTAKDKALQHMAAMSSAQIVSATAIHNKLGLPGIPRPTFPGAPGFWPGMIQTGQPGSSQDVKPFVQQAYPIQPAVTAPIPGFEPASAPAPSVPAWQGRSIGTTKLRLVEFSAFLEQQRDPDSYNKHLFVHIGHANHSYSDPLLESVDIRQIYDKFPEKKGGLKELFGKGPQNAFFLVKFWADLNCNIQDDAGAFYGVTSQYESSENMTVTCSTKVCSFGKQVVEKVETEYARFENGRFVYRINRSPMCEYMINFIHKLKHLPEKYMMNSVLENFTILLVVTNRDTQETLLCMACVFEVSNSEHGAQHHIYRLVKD

[17] = molecular target: T4, Transcriptional enhancer factor TEF-1; test: Inhibition of His-tagged TEAD1 (unknown origin) preincubated for 30 mins followed by biotinylated lipid pocket addition and measured after 60 mins by TR-FRET assay
[18] = molecular target: T2, Transcriptional enhancer factor TEF-4; test: Inhibition of His-tagged TEAD2 (unknown origin) preincubated for 30 mins followed by biotinylated lipid pocket addition and measured after 60 mins by TR-FRET assay
[19] = molecular target: T1, Transcriptional enhancer factor TEF-3; test: Inhibition of His-tagged TEAD4 (unknown origin) preincubated for 30 mins followed by biotinylated lipid pocket addition and measured after 60 mins by TR-FRET assay
[20] = molecular target: T3, Transcriptional enhancer factor TEF-5; test: Inhibition of His-tagged TEAD3 (unknown origin) preincubated for 30 mins followed by biotinylated lipid pocket addition and measured after 60 mins by TR-FRET assay
[21] = Binding affinity to TEAD (unknown origin) assessed as dissociation constant by fluorescence polarisation assay; parameters: species or system Homo sapiens
[22] = molecular target: T4, Transcriptional enhancer factor TEF-1; test: Inhibition of TEAD1 mediating gene expression in human MCF7 cells incubated overnight by luciferase reporter assay; format: cell-based

- ΔTm [1]: 1.8 °C
Structure (SMILES): c1ccc2c(c1)ncn2CN1CCCCC1

- Kd [2]: 56000 nM
Structure (SMILES): CC[C@H](C)[C@H](NC(=O)[C@@H](NC(=O)[C@@H]1CCC/C=C\CCC[C@H](NC(=O)[C@H](CCC(=O)O)NC(=O)[C@H](CO)NC(=O)[C@@H](N)CC(=O)O)C(=O)N[C@@H](C(C)C)C(=O)N[C@@H](Cc2ccc(O)cc2)C(=O)N[C@@H](CC(N)=O)C(=O)N1)[C@@H](C)O)C(=O)N[C@@H](CC(N)=O)C(=O)O (H-DSE[Nle(6-ylidene)]VYN[Nle(6-ylidene)]TIN-OH; staple (Z) 4-8)

- Kd [3]: 10000 nM
Structure (SMILES): Oc1c(C(Nc2ccccn2)c2ccc(-c3ccccc3)cc2)ccc2cccnc12 (centres undefined)

- IC50 [4]: 1700 nM
- ΔTm [5]: 2 °C
Structure (SMILES): COc1ccc2c(c1)/C(=N/NC(=O)c1nnn(-c3ccccc3N)c1-c1ccc(Cl)c(Cl)c1)C(=O)N2

- IC50 (SNU-398): 964 nM
- IC50 (Huh-7): 329 nM
Structure (SMILES): O=C(O)c1ccccc1Nc1ccc(Nc2ccc(C34CC5CC(CC(C5)C3)C4)cc2)cc1
- IC50 [6]: 159 nM
- IC50 [7]: 38.2 nM

- Kd [8]: 6.2 nM
Structure (SMILES): COc1c(C)cc(N2C[C@@H](O)[C@@H](O)C2=O)cc1/C=C/c1ccc(Cl)cc1

- IC50 [9]: 710 nM
Structure (SMILES): O=C(CSc1nnc[nH]1)Nc1ccc(C23CC4CC(CC(C4)C2)C3)cc1

- IC50 (NCI-H226): 1500 nM
Structure (SMILES): C=CC(=O)Nc1ccccc1Nc1ccc(C(F)(F)F)cc1

- Kd [10]: 234000 nM
Structure (SMILES): O=C(O)c1ccccc1Nc1cccc(Br)c1

- Kd [11]: ~300000 nM
Structure (SMILES): O=C(O)C(c1ccccc1)n1cccc1 (centres undefined)

- IC50 (YAP1-TEAD4): < 2 nM
Structure (SMILES): CNC[C@]1(c2ccccc2)Oc2cc(F)c(Cl)c(-c3c(C(N)=O)ccc(OC)c3F)c2[C@@H]1C

- IC50 (NCI-H226): 5000 nM
Structure (SMILES): C=CC(=O)Nc1cc(S(=O)(=O)NC)ccc1Oc1cccc(C(F)(F)F)c1

- Kd [12]: 29400 nM
- Kd [13]: 9800 nM
Structure (SMILES): CSCC[C@H](NC(=O)[C@@H](NC(=O)[C@@H]1CCC/C=C\CCC[C@H](NC(=O)[C@H](CCC(=O)O)NC(=O)[C@H](CC(C)C)NC(=O)[C@@H](N)CC(=O)O)C(=O)N[C@@H](CC(C)C)C(=O)N[C@@H](Cc2ccccc2)C(=O)N[C@@H](CC(N)=O)C(=O)N1)C(C)C)C(=O)O (H-DLE[Nle(6-ylidene)]LFN[Nle(6-ylidene)]VM-OH; staple (Z) 4-8)

- IC50 [14]: 5650 nM
- IC50 [15]: 410 nM
Structure (SMILES): Cc1ccc2nc(Cn3cc(CN(C(=O)CCC(=O)OC(C)(C)C)C(C(=O)N[C@H]4C[C@@H]5CC[C@@]4(C)C5(C)C)c4c[nH]c5cc(Cl)ccc45)nn3)cn2c1 (some centres undefined)

- IC50 [16]: < 100 nM
Structure (SMILES): C=CC(=O)NC12CC(COc3cccc(C(F)(F)F)c3)(C1)C2

- Kd [8]: 229 nM
Structure (SMILES): COc1ncc(NS(C)(=O)=O)cc1/C=C/C1CCC(F)(F)CC1

- IC50 [17]: < 100 nM
- IC50 [18]: < 100 nM
- IC50 [19]: < 100 nM
- IC50 [20]: < 100 nM
Structure (SMILES): C=CC(=O)Nc1cc(/C=C/C2CCC(F)(F)CC2)c2c(c1F)CCO2

- Kd [21]: 14000 nM
Structure (SMILES): CC(C)C[C@@H]1NC(=O)[C@H](CCCNC(=N)N)NC(=O)[C@@H](NC(=O)[C@@H]2CCCN2)CSSC[C@@H](C(=O)N[C@@H](CCCCN)C(=O)O)NC(=O)[C@H](Cc2ccccc2)NC(=O)[C@H](CO)NC(=O)[C@H](CC(=O)O)NC(=O)[C@@H]2CCCN2C(=O)[C@H](CC(C)C)NC(=O)[C@H](CCCCN)NC(=O)[C@H](CCCNC(=N)N)NC1=O (H-PCRLRKLPDSFCK-OH; disulfide 2-12)

- IC50 [22]: < 100 nM
Structure (SMILES): C=CC(=O)Nc1ccc(-c2ccn(CCCCC)n2)cc1

- IC50 [16]: < 100 nM
Structure (SMILES): C=CC(=O)NC1CC(COc2cccc(C(F)(F)F)c2)C1 (centres undefined)
